Earlier results as cited in PubChem BioAssay AID1259409 (Chemical Carcinogenesis Research Information System (CCRIS), 2018).

Tested on: rodent chemically induced tumor inhibition, incidence and multiplicity
Assay: CCRIS tumor inhibitor studies

[Cl][Zn][Cl]
tumour outcome (control, treated, inhibition, significance) (Carcinogen: CISPLATIN, 15663-27-1, Dose [Inhibitor]: 0, 40 UMOL/KG/D 3 D/WK FOR 8 WK ADMINISTERED 24 HR PRIOR TO EACH CARCINOGEN DOSE (STUDY DURATION: 24 WK), Route [Inhibitor]: SUBCUTANEOUS, Species: MOUSE, Strain/Sex: STRAIN-A/FEMALE, Target Tissue: Type of Lesion: LUNG: TUMOR, Dose [Carcinogen]: 2 UMOL/KG/D 3 D/WK FOR 8 WK, Promoter: NONE USED): 100%, 69%, 31%, p<0.05
tumour outcome (control, treated, inhibition, significance) (Carcinogen: MELPHALAN, 148-82-3, Dose [Inhibitor]: 0, 40 UMOL/KG/D 3 D/WK FOR 8 WK ADMINISTERED 24 HR PRIOR TO EACH CARCINOGEN DOSE (STUDY DURATION: 24 WK), Route [Inhibitor]: SUBCUTANEOUS, Species: MOUSE, Strain/Sex: STRAIN-A/FEMALE, Target Tissue: Type of Lesion: LUNG: TUMOR, Dose [Carcinogen]: 4 UMOL/KG/D 3 D/WK FOR 8 WK, Promoter: NONE USED): 100%, 100%, 0%, not significant

O=C1N[C@H](C(=O)O)CS1
tumour outcome (control, treated, inhibition, significance) (Carcinogen: DIETHYLNITROSAMINE, 55-18-5, Dose [Inhibitor]: 0, 600 MG/KG BW BY INTRAPERITONEAL INJECTION ON DAYS 13, 14 AND 15 OF AGE THEN 4 G/KG DIET FROM 21 TO 161 DAYS OF AGE (S, Route [Inhibitor]: INTRAPERITONEAL, ORAL, Species: MOUSE, Strain/Sex: C3H/MALE, Target Tissue: Type of Lesion: LIVER: ADENOMA, Dose [Carcinogen]: 4 MG/KG IN TRICAPRYLIN ONCE ON DAY 15 OF AGE, Promoter: NONE USED): 100%, 100%, 0%, not significant

COc1ccc2cc1Oc1ccc(cc1)C[C@H]1c3c(cc4c(c3Oc3cc5c(cc3OC)CCN(C)[C@@H]5C2)OCO4)CCN1C
tumour outcome (control, treated, inhibition, significance) (Carcinogen: 7,12-DIMETHYLBENZ[A]ANTHRACENE, 57-97-6, Dose [Inhibitor]: 0, 0.005% IN DIET BEGINNING 1 D POST CARCINOGEN TREATMENT AND CONTINUING FOR DURATION OF STUDY (STUDY DURATION: 18 WK), Route [Inhibitor]: ORAL, Species: MOUSE, Strain/Sex: ICR/FEMALE, Target Tissue: Type of Lesion: SKIN: PAPILLOMA, Dose [Carcinogen]: 50 UG IN 100 µL ACETONE ONCE, Promoter: 12-O-TETRADECANOYLPHORBOL-13-ACETATE, 16561-29-8): 100%, 95%, 5%, not significant
tumour outcome (control, treated, inhibition, significance) (Carcinogen: 7,12-DIMETHYLBENZ[A]ANTHRACENE, 57-97-6, Dose [Inhibitor]: 0, 0.005% IN DIET BEGINNING 1 D POST CARCINOGEN TREATMENT AND CONTINUING FOR DURATION OF STUDY (STUDY DURATION: 25 WK), Route [Inhibitor]: ORAL, Species: MOUSE, Strain/Sex: ICR/FEMALE, Target Tissue: Type of Lesion: SKIN: PAPILLOMA, Dose [Carcinogen]: 50 UG IN 100 µL ACETONE ONCE, Promoter: 12-O-TETRADECANOYLPHORBOL-13-ACETATE, 16561-29-8, MEZEREIN, 34807-41-5, Promoter: 12-O-TETRADECANOYLPHORBOL-13-ACETATE, 16561-29-8, MEZEREIN, 34807-41-5): 75%, 45%, 40%, not calculated
tumour outcome (control, treated, inhibition, significance) (Carcinogen: 7,12-DIMETHYLBENZ[A]ANTHRACENE, 57-97-6, Dose [Inhibitor]: 0, 2 UMOL 2/WK 30 MIN PRIOR TO EACH PROMOTER DOSE BEGINNING 1 WK POST CARCINOGEN DOSE (STUDY DURATION: 18 WK), Route [Inhibitor]: DERMAL, Species: MOUSE, Strain/Sex: ICR/FEMALE, Target Tissue: Type of Lesion: SKIN: PAPILLOMA, Dose [Carcinogen]: 50 UG ONCE, Promoter: 12-O-TETRADECANOYLPHORBOL-13-ACETATE, 16561-29-8): 100%, 27%, 73%, not calculated
tumour outcome (control, treated, inhibition, significance) (Carcinogen: 7,12-DIMETHYLBENZ[A]ANTHRACENE, 57-97-6, Dose [Inhibitor]: 0, 20 UMOL/MOUSE 2/WK FOR 18 WK APPLIED 5 MIN PRIOR TO EACH PROMOTER DOSE (STUDY DURATION: 19 WK), Route [Inhibitor]: DERMAL, Species: MOUSE, Strain/Sex: CD-1/FEMALE, Target Tissue: Type of Lesion: SKIN: PAPILLOMA, Dose [Carcinogen]: 100 UG IN 200 µL ACETONE ONCE, Promoter: 12-O-TETRADECANOYLPHORBOL-13-ACETATE, 16561-29-8): 100%, 30%, 70%, p<0.01

CC(=O)[C@H]1CC[C@H]2[C@@H]3CCC4=CC(=O)CC[C@]4(C)[C@H]3CC[C@]12C
tumour outcome (control, treated, inhibition, significance) (Carcinogen: 7,12-DIMETHYLBENZ[A]ANTHRACENE, 57-97-6, Dose [Inhibitor]: 0, 1 MG/100 G BW 3/WK FOR 150 D BEGINNING POST CARCINOGEN TREATMENT (STUDY DURATION: 150 D), Route [Inhibitor]: SUBCUTANEOUS, Species: RAT, Strain/Sex: WISTAR/FEMALE, Target Tissue: Type of Lesion: MAMMARY GLAND: ADENOCARCINOMA, Dose [Carcinogen]: 4 MG IN 0.1 ML OF SESAME OIL INJECTED ONCE INTO THE EXPOSED MAMMARY TISSUE OF HYPERPROLACTINEMIC RATS ON DAY 73 OF AGE, Promoter: NONE USED): 8/11 (73%), 5/11 (45%), 38%, p<0.05
tumour outcome (control, treated, inhibition, significance) (Carcinogen: N-METHYL-N-NITROSOUREA, 684-93-5, Dose [Inhibitor]: 0, 2560 MG/KG IN DIET FOR THE DURATION OF STUDY BEGINNING 7 D PRIOR TO CARCINOGEN DOSE (STUDY DURATION: 187 D), Route [Inhibitor]: ORAL, Species: RAT, Strain/Sex: SPRAGUE-DAWLEY/FEMALE, Target Tissue: Type of Lesion: MAMMARY GLAND: TUMOR, Dose [Carcinogen]: 50 MG/KG BW ONCE, Promoter: NONE USED): 100%, 95%, 5%, not significant

c1ccc2c(c1)-c1cccc3cccc-2c13
tumour outcome (control, treated, inhibition, significance) (Carcinogen: BENZO[A]PYRENE, 50-32-8, Dose [Inhibitor]: 40 UG IN 0.1 ML ACETONE 3/WK ADMINISTERED SIMULTANEOUSLY WITH CARCINOGEN FOR DURATION OF STUDY (STUDY DURATION: 440 D), Route [Inhibitor]: DERMAL, Species: MOUSE, Strain/Sex: ICR/FEMALE, Target Tissue: Type of Lesion: SKIN: PAPILLOMA, Dose [Carcinogen]: 5 UG IN 0.1 ML ACETONE 3/WK FOR DURATION OF STUDY, Promoter: NONE USED): 16/50 (32%), 39/50 (78%), -144%, not calculated
tumour outcome (control, treated, inhibition, significance) (Carcinogen: BENZO[A]PYRENE, 50-32-8, Dose [Inhibitor]: 40 UG IN 0.1 ML ACETONE 3/WK ADMINISTERED SIMULTANEOUSLY WITH CARCINOGEN FOR DURATION OF STUDY (STUDY DURATION: 440 D), Route [Inhibitor]: DERMAL, Species: MOUSE, Strain/Sex: ICR/FEMALE, Target Tissue: Type of Lesion: SKIN: SQUAMOUS CARCINOMA, Dose [Carcinogen]: 5 UG IN 0.1 ML ACETONE 3/WK FOR DURATION OF STUDY, Promoter: NONE USED): 12/50 (24%), 37/50 (74%), -208%, not calculated

CC[C@@H](C)[C@@H](N)C(=O)OC
tumour outcome (control, treated, inhibition, significance) (Carcinogen: 7,12-DIMETHYLBENZ[A]ANTHRACENE, 57-97-6, Dose [Inhibitor]: 0, 1 MG IN 0.2 ML ACETONE APPLIED 30 MIN AFTER EACH MEZEREIN DOSE (STUDY DURATION: 20 WK), Route [Inhibitor]: DERMAL, Species: MOUSE, Strain/Sex: SENCAR/FEMALE, Target Tissue: Type of Lesion: SKIN: PAPILLOMA, Dose [Carcinogen]: 0.1 UMOL IN 0.2 ML ACETONE ONCE, Promoter: TPA, 16561-29-8, MEZEREIN, 37807-41-5, Promoter: TPA, 16561-29-8, MEZEREIN, 37807-41-5): 100%, 76%, 24%, p<0.005
tumour outcome (control, treated, inhibition, significance) (Carcinogen: 7,12-DIMETHYLBENZ[A]ANTHRACENE, 57-97-6, Dose [Inhibitor]: 0, 1 MG IN 0.2 ML ACETONE APPLIED 30 MIN AFTER EACH TPA DOSE (STUDY DURATION: 20 WK), Route [Inhibitor]: DERMAL, Species: MOUSE, Strain/Sex: SENCAR/FEMALE, Target Tissue: Type of Lesion: SKIN: PAPILLOMA, Dose [Carcinogen]: 0.1 UMOL IN 0.2 ML ACETONE ONCE, Promoter: TPA, 16561-29-8, MEZEREIN, 37807-41-5, Promoter: TPA, 16561-29-8, MEZEREIN, 37807-41-5): 100%, 83%, 17%, p<0.005
